Literature values as cited in patent US20160324856A1, “USE OF SGC STIMULATORS FOR THE TREATMENT OF NEUROMUSCULAR DISORDERS” (IRONWOOD PHARMACEUTICALS, INC., priority 2014, published 2016).

Assays:
[1] = system: mdx mouse
[2] = system: dystrophin-deficient zebrafish

SMILES: CCCc1nn(C)c2c(=O)[nH]c(-c3cc(S(=O)(=O)N4CCN(C)CC4)ccc3OCC)nc12 [sildenafil]
- cardiac dynamics ([1]; mdx mice): improve cardiac dynamics
- muscle ischemia, injury and fatigue ([1]; mdx mouse, after a brief bout of exercise): alleviate muscle ischemia, as well as injury and fatigue
- dystrophic skeletal muscle and survival [2]: rescue dystrophic skeletal muscle and prolong survival
